For 23 molecules, IC50 and Ki results are on record in ChEMBL document CHEMBL1268914, “5,6,7,8-Tetrahydropyrido[4,3-d]pyrimidines as novel class of potent and highly selective CaMKII inhibitors” (Bioorg Med Chem Lett, 2010).

SMILES strings stand for the structures.

Test [1] is described as follows: Inhibition of CAMK2.
The target of test [2] is T1, Calcium/calmodulin-dependent protein kinase type IV (Homo sapiens, UniProt Q16566).
T1 sequence (Q16566 whole entry): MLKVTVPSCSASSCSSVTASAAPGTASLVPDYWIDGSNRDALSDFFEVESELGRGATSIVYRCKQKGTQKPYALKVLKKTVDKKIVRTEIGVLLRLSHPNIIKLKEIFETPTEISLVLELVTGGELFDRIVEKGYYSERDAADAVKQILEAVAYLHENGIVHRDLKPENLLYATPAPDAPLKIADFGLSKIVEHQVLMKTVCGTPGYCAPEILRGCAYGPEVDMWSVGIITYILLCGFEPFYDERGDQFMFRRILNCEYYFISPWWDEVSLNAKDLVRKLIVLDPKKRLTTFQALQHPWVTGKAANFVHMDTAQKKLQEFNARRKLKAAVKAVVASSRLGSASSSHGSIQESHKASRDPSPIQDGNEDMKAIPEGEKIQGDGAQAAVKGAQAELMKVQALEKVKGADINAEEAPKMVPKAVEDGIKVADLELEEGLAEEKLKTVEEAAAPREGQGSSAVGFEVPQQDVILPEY
Nature of the test: Inhibition of CAMK4.

Test [3] concerns the target Myosin light chain kinase, smooth muscle (Homo sapiens, UniProt Q15746). The test can be described thus: Inhibition of MLCK.
The target of test [4] is Mitogen-activated protein kinase 14 (Homo sapiens, UniProt Q16539). The test can be described thus: Inhibition of p38alpha.
Chain of Mitogen-activated protein kinase 14 (Q16539 whole entry): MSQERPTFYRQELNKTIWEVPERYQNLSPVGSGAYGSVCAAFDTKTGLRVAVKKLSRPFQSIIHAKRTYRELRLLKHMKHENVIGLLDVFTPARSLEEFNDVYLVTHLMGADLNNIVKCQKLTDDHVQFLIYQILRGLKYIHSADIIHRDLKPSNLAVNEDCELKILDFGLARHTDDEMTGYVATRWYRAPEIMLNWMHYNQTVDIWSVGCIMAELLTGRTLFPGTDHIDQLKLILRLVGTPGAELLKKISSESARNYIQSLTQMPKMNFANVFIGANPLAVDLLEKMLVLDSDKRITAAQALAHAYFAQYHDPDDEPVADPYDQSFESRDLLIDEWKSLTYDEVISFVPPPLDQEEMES
For test [5], the target named is RAC-alpha serine/threonine-protein kinase (Homo sapiens, UniProt P31749). Nature of the test: Inhibition of AKT1.
Chain of RAC-alpha serine/threonine-protein kinase (P31749 whole entry): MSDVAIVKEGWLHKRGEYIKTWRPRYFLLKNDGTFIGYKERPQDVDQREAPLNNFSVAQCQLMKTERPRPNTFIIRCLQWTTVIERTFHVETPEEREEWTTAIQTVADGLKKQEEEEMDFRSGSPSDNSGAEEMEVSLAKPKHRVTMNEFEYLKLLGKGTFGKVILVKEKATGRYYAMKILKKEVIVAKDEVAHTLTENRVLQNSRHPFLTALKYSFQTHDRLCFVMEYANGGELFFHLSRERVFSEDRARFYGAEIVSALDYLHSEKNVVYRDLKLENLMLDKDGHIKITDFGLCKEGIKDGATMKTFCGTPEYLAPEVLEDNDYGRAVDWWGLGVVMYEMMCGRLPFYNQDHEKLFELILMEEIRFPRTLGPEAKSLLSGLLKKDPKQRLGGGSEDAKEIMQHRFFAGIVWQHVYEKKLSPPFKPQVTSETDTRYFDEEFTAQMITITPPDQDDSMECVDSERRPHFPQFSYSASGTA
Test [6] in a line: Inhibition of PKC.
Test [7] in a line: Non-competitive inhibition of CAMK2 by Michaelis-Menten plot.

Chain of Myosin light chain kinase, smooth muscle (Q15746 whole entry): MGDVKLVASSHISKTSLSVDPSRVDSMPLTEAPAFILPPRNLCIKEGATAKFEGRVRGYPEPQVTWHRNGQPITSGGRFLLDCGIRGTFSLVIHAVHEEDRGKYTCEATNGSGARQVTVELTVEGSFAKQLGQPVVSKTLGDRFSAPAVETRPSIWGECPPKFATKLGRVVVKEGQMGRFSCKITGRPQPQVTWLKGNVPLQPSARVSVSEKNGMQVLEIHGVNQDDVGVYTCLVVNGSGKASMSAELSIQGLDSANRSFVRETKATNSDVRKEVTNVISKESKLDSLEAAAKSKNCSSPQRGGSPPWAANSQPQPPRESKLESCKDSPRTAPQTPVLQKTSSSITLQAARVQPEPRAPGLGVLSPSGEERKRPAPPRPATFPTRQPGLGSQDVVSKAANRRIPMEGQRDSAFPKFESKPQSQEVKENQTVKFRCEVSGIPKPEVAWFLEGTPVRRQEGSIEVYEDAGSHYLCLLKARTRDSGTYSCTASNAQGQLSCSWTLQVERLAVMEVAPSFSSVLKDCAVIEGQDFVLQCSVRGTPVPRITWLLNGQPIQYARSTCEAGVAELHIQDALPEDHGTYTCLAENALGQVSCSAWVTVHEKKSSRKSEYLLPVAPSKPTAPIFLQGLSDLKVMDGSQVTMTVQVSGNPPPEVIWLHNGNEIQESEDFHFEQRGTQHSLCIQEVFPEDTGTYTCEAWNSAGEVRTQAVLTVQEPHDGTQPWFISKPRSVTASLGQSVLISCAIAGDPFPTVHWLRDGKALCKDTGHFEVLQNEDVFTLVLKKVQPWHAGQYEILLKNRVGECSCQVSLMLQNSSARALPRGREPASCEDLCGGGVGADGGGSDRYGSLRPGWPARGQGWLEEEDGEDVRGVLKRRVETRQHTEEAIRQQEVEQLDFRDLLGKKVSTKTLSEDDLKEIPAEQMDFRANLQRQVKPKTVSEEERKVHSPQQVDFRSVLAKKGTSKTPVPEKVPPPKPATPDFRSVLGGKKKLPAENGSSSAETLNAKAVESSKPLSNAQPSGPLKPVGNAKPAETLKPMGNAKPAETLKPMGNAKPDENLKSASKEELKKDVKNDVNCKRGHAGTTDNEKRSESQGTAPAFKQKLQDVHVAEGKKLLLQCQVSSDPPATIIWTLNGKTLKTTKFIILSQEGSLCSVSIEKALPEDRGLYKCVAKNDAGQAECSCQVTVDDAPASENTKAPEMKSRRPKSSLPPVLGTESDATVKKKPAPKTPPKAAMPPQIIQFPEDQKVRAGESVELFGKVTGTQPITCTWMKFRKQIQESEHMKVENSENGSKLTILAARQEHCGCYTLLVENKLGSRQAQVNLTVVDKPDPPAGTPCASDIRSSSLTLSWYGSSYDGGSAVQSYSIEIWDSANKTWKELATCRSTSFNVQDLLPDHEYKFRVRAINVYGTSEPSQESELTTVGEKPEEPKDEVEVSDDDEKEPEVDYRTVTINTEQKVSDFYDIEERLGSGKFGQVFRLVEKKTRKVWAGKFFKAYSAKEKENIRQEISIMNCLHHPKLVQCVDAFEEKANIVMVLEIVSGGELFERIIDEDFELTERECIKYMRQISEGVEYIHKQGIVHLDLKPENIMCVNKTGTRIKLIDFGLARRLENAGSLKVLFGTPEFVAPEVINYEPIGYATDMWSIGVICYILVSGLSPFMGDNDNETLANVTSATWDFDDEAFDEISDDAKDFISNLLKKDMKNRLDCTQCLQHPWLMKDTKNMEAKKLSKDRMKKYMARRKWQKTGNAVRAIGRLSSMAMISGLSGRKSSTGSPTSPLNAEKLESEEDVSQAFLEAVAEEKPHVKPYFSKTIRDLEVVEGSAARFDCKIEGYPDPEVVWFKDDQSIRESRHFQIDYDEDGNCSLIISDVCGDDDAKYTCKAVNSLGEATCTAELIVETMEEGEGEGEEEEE

Regarding `Cc1ccc(S(=O)(=O)Nc2nc(NCCc3ccccc3)nc3c2CN(Cc2ccccc2)CC3)cc1Cl`, half-maximal inhibition in test [1] (IC50) required 0.76 µM.
In the case of `COc1ccc(S(=O)(=O)N(CCO)c2ccccc2CN(C)C/C=C/c2ccc(Cl)cc2)cc1`, in test [1], half-maximal inhibition (IC50) required 1.6 µM.
For the molecule `O=S(=O)(Nc1nc(NCCc2ccccc2)nc2c1CN(Cc1ccccc1)CC2)c1cccc2ccccc12`, in test [1], it took 3.3 µM to reach half-maximal inhibition (IC50).
Regarding `O=S(=O)(Nc1nc(OCCc2ccccc2)nc2c1CN(Cc1ccccc1)CC2)c1ccc2ccccc2c1`, the 50% inhibitory concentration (IC50) – broadly, the concentration that gives 50% inhibition – in test [1] is 1.8 µM.
The molecule `CS(=O)(=O)Nc1ccnc(NCCc2ccccc2)n1` gave a concentration for half-maximal inhibition (IC50) in test [1] of 60 µM.
Turning to `O=S(=O)(Nc1nc(NCCc2ccccc2)nc2c1CN(Cc1ccccc1)CC2)c1ccc(Cl)c(Cl)c1`, in test [1], the IC50 was 0.2 µM.
On the same count and under the same terms, next, `Cc1cccc(S(=O)(=O)Nc2nc(NCCc3ccccc3)nc3c2CN(Cc2ccccc2)CC3)c1`: 2.4 µM.
With `O=S(=O)(Nc1nc(NCCc2ccccc2)nc2c1CCCC2)c1ccc(Cl)cc1`, inhibition in test [1] was half-maximal at 60 µM (IC50).
The molecule `Cc1ccc(S(=O)(=O)Nc2nc(NCCc3ccccc3)nc3c2CN(Cc2ccccc2)CC3)cc1` registered an IC50 in test [1] of 2.7 µM.
In test [1], `O=S(=O)(Nc1nc(NCCc2ccccc2)nc2c1CN(Cc1ccccc1)CC2)c1ccc(Cl)cc1` gave an IC50 of 3.2 µM.
Consider `Cc1c(Cl)cccc1S(=O)(=O)Nc1nc(NCCc2ccccc2)nc2c1CN(Cc1ccccc1)CC2`, for which the half-inhibitory concentration (IC50) in test [1] was 0.063 µM; in test [2], above 60 µM; in test [3], 36 µM; in test [4] it was 11 µM; in test [5], 30 µM; in test [6], 21 µM.
The molecule `Cc1ccccc1S(=O)(=O)Nc1nc(NCCc2ccccc2)nc2c1CN(Cc1ccccc1)CC2` came in with an IC50 in test [1] of 0.53 µM.
The same measure, in the same setting: next, `CN1CCc2nc(NCCc3ccccc3)nc(NS(=O)(=O)c3ccccc3)c2C1`: 10 µM.
Take `O=S(=O)(Nc1ccnc(NCCc2ccccc2)n1)c1ccc(Cl)cc1`: the IC50 was 11 µM in test [1] and 51 µM in test [3].
With `O=S(=O)(Nc1nc(NCCc2ccccc2)nc2c1CN(Cc1ccccc1)CC2)c1ccccc1`, in test [1], the IC50 stood at 9.7 µM.
Still for that read-out and setting: next, `O=S(=O)(Nc1nc(NCCc2ccccc2)nc2c1CN(Cc1ccccc1)CC2)c1ccccc1Cl`: 0.92 µM; `O=S(=O)(Cc1ccccc1)Nc1ccnc(NCCc2ccccc2)n1`: 27 µM.
As for `O=S(=O)(Nc1nc(NCCc2ccccc2)nc2c1CN(Cc1ccccc1)CC2)c1ccc2ccccc2c1`, the half-maximal inhibitory concentration (IC50) is 0.16 µM in test [1]; above 60 µM in test [2]; 0.9 µM in test [3]; 11 µM in test [4]; 8.5 µM in test [5]; 22 µM in test [6]. In test [7], the Ki – broadly, the dissociation constant of the complex between target and ligand, obtained from inhibition or displacement – worked out at 0.926 µM.
`CN(c1nc(NCCc2ccccc2)nc2c1CN(Cc1ccccc1)CC2)S(=O)(=O)c1ccccc1` registered an IC50 in test [1] of 9.3 µM.
In test [1], `CCCN(c1nc(NCCc2ccccc2)nc2c1CN(Cc1ccccc1)CC2)S(=O)(=O)c1ccccc1` displayed an IC50 above 30 µM.
Same read-out and setting: next, `COc1ccc(S(=O)(=O)Nc2nc(NCCc3ccccc3)nc3c2CN(Cc2ccccc2)CC3)cc1`: 3.2 µM; `O=S(=O)(Nc1nc(NCCc2ccccc2)nc2c1CN(Cc1ccccc1)CC2)c1cccc(Cl)c1Cl`: 1 µM.
Same read-out and setting: next, `O=S(=O)(Nc1nc(NCCc2ccccc2)nc2c1CN(Cc1ccccc1)CC2)c1cccc(Cl)c1`: 0.42 µM.
